Assay results published in patent publication US8962608B2, “Cycloalkylnitrile pyrazole carboxamides as janus kinase inhibitors” (Merck Sharp & Dohme Corp., priority 2011, dated 2015).

Columns and labels:
[1] = target: JAK1 (recombinant purified GST-tagged catalytic domain) (Homo sapiens (Human), UniProt P23458); test: biochemical;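 further: biochemical assay with HTRF read-out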
[2] = target: JAK2 (recombinant purified GST-tagged catalytic domain) (Homo sapiens (Human), UniProt O60674); test: biochemical;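 further: biochemical JAK kinase assay with HTRF detection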
JAK2 (recombinant purified GST-tagged catalytic domain), sequence (O60674 849-1124): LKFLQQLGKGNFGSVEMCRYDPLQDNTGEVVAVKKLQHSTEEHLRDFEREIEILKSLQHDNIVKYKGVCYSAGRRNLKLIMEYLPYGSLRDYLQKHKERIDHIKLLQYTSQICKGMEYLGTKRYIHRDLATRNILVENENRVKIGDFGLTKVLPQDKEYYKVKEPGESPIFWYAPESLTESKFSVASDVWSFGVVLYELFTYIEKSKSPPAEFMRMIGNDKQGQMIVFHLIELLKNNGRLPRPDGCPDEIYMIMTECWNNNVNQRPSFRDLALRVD

JAK1 (recombinant purified GST-tagged catalytic domain), sequence (P23458 875-1153): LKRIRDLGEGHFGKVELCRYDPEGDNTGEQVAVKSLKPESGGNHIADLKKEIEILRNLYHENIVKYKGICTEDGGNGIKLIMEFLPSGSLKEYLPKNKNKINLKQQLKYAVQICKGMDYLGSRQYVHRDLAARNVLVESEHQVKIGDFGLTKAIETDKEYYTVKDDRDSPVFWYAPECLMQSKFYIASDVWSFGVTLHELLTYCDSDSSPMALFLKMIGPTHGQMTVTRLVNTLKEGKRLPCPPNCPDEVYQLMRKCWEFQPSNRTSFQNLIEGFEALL

| IC50 [1] | IC50 [2] | Compound |
| --- | --- | --- |
| 33 nM | 243 nM | N#C[C@H]1C[C@@H](C(=O)NC2COC2)CC[C@@H]1n1cc(C(N)=O)c(Nc2ccc(Cl)cc2)n1 (single isomer, unassigned) [Example 35-7, 3-[(4-chlorophenyl)amino]-1-[(1S,2S,4S or 1R,2R,4R)-2-cyano-4-(oxetan-3-ylcarbamoyl)cyclohexyl]-1H-pyrazole-4-carboxamide] |
| 3 nM | 38 nM | N#C[C@@H]1C[C@H](C(=O)NCC(F)(F)F)CCC1n1cc(C(N)=O)c(Nc2ccc(Cl)cc2)n1 (single isomer, unassigned) [Example 35-10, 3-[(4-chlorophenyl)amino]-1-{(1R,2R,4R or 1S,2S,4S)-2-cyano-4-[(2,2,2-trifluoroethyl)carbamoyl]cyclohexyl}-1H-pyrazole-4-carboxamide] |
| 2 nM | 85 nM | CC1CN([C@H]2CC[C@H](n3cc(C(N)=O)c(Nc4ccc(Cl)cc4)n3)[C@@H](C#N)C2)C1 (single isomer, unassigned) [Example 28-96, 3-[(4-chlorophenyl)amino]-1-[(1S,2S,4S or 1R,2R,4R)-2-cyano-4-(3-methylazetidin-1-yl)cyclohexyl]-1H-pyrazole-4-carboxamide] |
| 3 nM | 20 nM | N#C[C@H]1C[C@H](O)CC[C@@H]1n1cc(C(N)=O)c(Nc2ccc(Cl)c(Cl)c2)n1 (single isomer, unassigned) [Example 25-6, 1-[(1S,2S,4R or 1R,2R,4S)-2-cyano-4-hydroxycyclohexyl]-3-[(3,4-dichlorophenyl)amino]-1H-pyrazole-4-carboxamide] |
| 2 nM | 24 nM | CC1(N[C@H]2CCC(n3cc(C(N)=O)c(Nc4ccccc4)n3)[C@@H](C#N)C2)CC1 (single isomer, unassigned) [Example 28-216, 1-{(1S,2S,4S or 1R,2R,4R)-2-cyano-4-[(1-methylcyclopropyl)amino]cyclo-hexyl}-3-(phenylamino)-1H-pyrazole-4-carboxamide] |
| 0.15 nM | 3 nM | CC1(O)CN([C@H]2CC[C@H](n3cc(C(N)=O)c(Nc4ccc(C(F)(F)F)cc4)n3)[C@@H](C#N)C2)C1 (single isomer, unassigned) [Example 28-198, 1-[(1S,2S,4S or 1R,2R,4R)-2-cyano-4-(3-hydroxy-3-methylazetidin-1-yl)cyclohexyl]-3-{[4-(trifluoromethyl)phenyl]amino}-1H-pyrazole-4-carboxamide] |
| 30 nM | 67 nM | N#C[C@@H]1CCCC[C@H]1n1cc(C(N)=O)c(Nc2ccc(S(=O)(=O)N3CCC(Cc4ccccc4)CC3)cc2)n1 (single isomer, unassigned) [Example 17-69, 3-({4-[(4-benzylpiperidin-1-yl)sulfonyl]phenyl}amino)-1-[(1R,2R or 1S,2S)-2-cyanocyclohexyl]-1H-pyrazole-4-carboxamide] |
| 0.33 nM | 1 nM | N#C[C@@H]1CCCC[C@H]1n1cc(C(N)=O)c(Nc2ccc(S(=O)(=O)NCC3CC3)cc2)n1 (single isomer, unassigned) [Example 17-66, 1-[(1R,2R or 1S,2S)-2-cyanocyclohexyl]-3-({4-[(cyclopropylmethyl)sulfamoyl]phenyl}amino)-1H-pyrazole-4-carboxamide] |
| 0.3 nM | 9 nM | CC(=O)c1ccc(Nc2nn([C@H]3CC[C@H](N4CCC4)C[C@@H]3C#N)cc2C(N)=O)cc1 (single isomer, unassigned) [Example 28-84, 3-[(4-acetylphenyl)amino]-1-[(1S,2S,4S or 1R,2R,4R)-4-azetidin-1-yl-2-cyanocyclohexyl]-1H-pyrazole-4-carboxamide] |
| 0.5 nM | 2 nM | N#C[C@H]1CCCC[C@@H]1n1cc(C(N)=O)c(Nc2ccc(S(=O)(=O)NCc3ccccc3Cl)cc2)n1 (single isomer, unassigned) [Example 17-91, 3-({4-[(2-chlorobenzyl)sulfamoyl]phenyl}amino)-1-[(1R,2R or 1S,2S)-2-cyanocyclohexyl]-1H-pyrazole-4-carboxamide] |
| 0.5 nM | 1 nM | CC(=O)N1CCN(S(=O)(=O)c2ccc(Nc3nn([C@H]4CCCC[C@@H]4C#N)cc3C(N)=O)cc2)CC1 (single isomer, unassigned) [Example 17-89, 3-({4-[(4-acetylpiperazin-1-yl)sulfonyl]phenyl}amino)-1-[(1R,2R or 1S,2S)-2-cyanocyclohexyl]-1H-pyrazole-4-carboxamide] |
| 2 nM | 8 nM | N#C[C@H]1CCCCC1n1cc(C(N)=O)c(Nc2ccc3c(c2)CCC(=O)N3)n1 (mixture of isomers) [Example 17-11, 1-[(1S,2S and 1R,2R)-2-cyanocyclohexyl]-3-[(2-oxo-1,2,3,4-tetrahydroquinolin-6-yl)amino]-1H-pyrazole-4-carboxamide] |
| 2 nM | 16 nM | N#C[C@H]1CCCCC1n1cc(C(N)=O)c(Nc2ccc(-c3cn[nH]c3)nc2)n1 (mixture of isomers) [Example 21-3, 1-[(1S,2S and 1R,2R)-2-cyanocyclohexyl]-3-{[6-(1H-pyrazol-4-yl)pyridin-3-yl]amino}-1H-pyrazole-4-carboxamide] |
| 0.3 nM | 2 nM | N#C[C@H]1C[C@@H](O)CC[C@@H]1n1cc(C(N)=O)c(Nc2ccc([C@H](O)C(F)(F)F)cc2)n1 (single isomer, unassigned) [Example 33-10, 1-[(1S,2S,4S or 1R,2R,4R)-2-cyano-4-hydroxycyclohexyl]-3-({4-[(1S)-2,2,2-trifluoro-1-hydroxyethyl]phenyl}amino)-1H-pyrazole-4-carboxamide] |
| 0.6 nM | 39 nM | N#C[C@H]1C[C@@H](NC(C2CC2)C2CC2)CC[C@@H]1n1cc(C(N)=O)c(Nc2ccc(S(=O)(=O)C(F)(F)F)cc2)n1 (single isomer, unassigned) [Example 28-180, 1-{(1S,2S,4S or 1R,2R,4R)-2-cyano-4-[(dicyclopropyl-methyl)amino]cyclohexyl}-3-({4-[(trifluoro-methyl)sulfonyl]phenyl}amino)-1H-pyrazole-4-carboxamide] |
| 0.4 nM | 1 nM | N#C[C@@H]1CCCC[C@H]1n1cc(C(N)=O)c(Nc2ccc(S(=O)(=O)NCCN3CCOCC3)cc2)n1 (single isomer, unassigned) [Example 17-68, 1-[(1R,2R or 1S,2S)-2-cyanocyclohexyl]-3-({4-[(2-morpholin-4-ylethyl)sulfamoyl]phenyl}amino)-1H-pyrazole-4-carboxamide] |
| 4 nM | 225 nM | N#C[C@H]1CC(NC(C2CC2)C2CC2)CC[C@@H]1n1cc(C(N)=O)c(Nc2ccc(S(=O)(=O)C(F)(F)F)cc2)n1 (single isomer, unassigned) [Example 28-164, 1-{(1S,2S,4R or 1R,2R,4S)-2-cyano-4-[(dicyclo-propylmethyl)amino]cyclohexyl}-3-({4-[(trifluoro-methyl)sulfonyl]phenyl}amino)-1H-pyrazole-4-carboxamide] |
| 2 nM | 242 nM | N#C[C@@H]1C[C@@H](NCC2CCC2)CC[C@H]1n1cc(C(N)=O)c(Nc2ccc(C(F)(F)F)cc2)n1 (single isomer, unassigned) [Example 30-16, 1-{(1R,2R,4S or 1S,2S,4R)-2-cyano-4-[(cyclobutyl-methyl)amino]cyclohexyl}-3-{[4-(trifluoro-methyl)phenyl]amino}-1H-pyrazole-4-carboxamide] |
| 13 nM | 136 nM | N#C[C@@H]1C[C@H](C(=O)NC2CC(F)(F)C2)CC[C@H]1n1cc(C(N)=O)c(Nc2ccc(Cl)cc2)n1 (single isomer, unassigned) [Example 35-18, 3-[(4-chlorophenyl)amino]-1-{(1R,2R,4R or 1S,2S,4S)-2-cyano-4-[(3,3-difluorocyclobutyl)carbamoyl]cyclohexyl}-1H-pyrazole-4-carboxamide] |
| 69 nM | 150 nM | N#C[C@H]1C[C@H](OCC2CC2)CC[C@H]1n1cc(C(N)=O)c(Nc2ccnc(F)c2)n1 (single isomer, unassigned) [Example 26-3, 1-[(1R,2S,4R or 1S,2R,4S)-2-cyano-4-(cyclopropylmethoxy)cyclohexyl]-3-[(2-fluoropyridin-4-yl)amino]-1H-pyrazole-4-carboxamide] |
| 0.25 nM | 0.95 nM | N#C[C@H]1CCCC[C@@H]1n1cc(C(N)=O)c(Nc2ccc(S(=O)(=O)NCc3ccncc3)cc2)n1 (single isomer, unassigned) [Example 17-86, 1-[(1R,2R or 1S,2S)-2-cyanocyclohexyl]-3-({4-[(pyridin-4-ylmethyl)sulfamoyl]phenyl}amino)-1H-pyrazole-4-carboxamide] |
| 7 nM | 218 nM | N#C[C@H]1C[C@@H](C(=O)NCC(F)(F)F)CC[C@@H]1n1cc(C(N)=O)c(Nc2ccc(Cl)cc2)n1 (single isomer, unassigned) [Example 35-22, 3-[(4-chlorophenyl)amino]-1-{(1S,2S,4S or 1R,2R,4R)-2-cyano-4-[(2,2,2-trifluoroethyl)carbamoyl]cyclohexyl}-1H-pyrazole-4-carboxamide] |
| 50 nM | 260 nM | N#C[C@H]1CCCC[C@@H]1n1cc(C(N)=O)c(Nc2ccc(C(F)(F)F)nc2)n1 (single isomer, unassigned) [Example 17-109, 1-[(1S,2S or 1R,2R)-2-cyanocyclohexyl]-3-{[6-(trifluoromethyl)pyridin-3-yl]amino}-1H-pyrazole-4-carboxamide] |

| Compound | IC50 [1] | IC50 [2] |
| --- | --- | --- |
| N#C[C@H]1C[C@@H](N2CCC2)CC[C@@H]1n1cc(C(N)=O)c(Nc2ccc(C(F)(F)F)cc2)n1 (single isomer, unassigned) [Example 28-1, 1-((1S,2S,4S or 1R,2R,4R)-4-(azetidin-1-yl)-2-cyanocyclohexyl)-3-((4-(trifluoromethyl)phenyl)amino)-1H-pyrazole-4-carboxamide] | 0.4 nM | 23 nM |
